ChEMBL document CHEMBL5625248, “Identification of unique indolylcyanoethylenyl sulfonylanilines as novel structural scaffolds of potential antibacterial agents” (Eur J Med Chem, 2023)
In brackets after ≈: the same amount, converted by molar mass.

Columns and labels:
Type in all cases: functional
[1] = tested on: Staphylococcus aureus; experiment: Antibacterial activity against Staphylococcus aureus assessed as inhibition of bacterial growth incubated for 18 hrs by two fold broth microdilution assay
[2] = tested on: Pseudomonas aeruginosa; experiment: Antibacterial activity against Pseudomonas aeruginosa ATCC 27853 assessed as inhibition of bacterial growth incubated for 18 hrs by two fold broth microdilution assay
[3] = tested on: Acinetobacter baumannii; experiment: Antibacterial activity against Acinetobacter baumannii assessed as inhibition of bacterial growth incubated for 18 hrs by two fold broth microdilution assay
[4] = tested on: Staphylococcus aureus; experiment: Antibacterial activity against Staphylococcus aureus ATCC 29213 assessed as inhibition of bacterial growth incubated for 18 hrs by two fold broth microdilution assay
[5] = tested on: Escherichia coli; experiment: Antibacterial activity against Escherichia coli assessed as inhibition of bacterial growth incubated for 18 hrs by two fold broth microdilution assay
[6] = tested on: Klebsiella pneumoniae; experiment: Antibacterial activity against Klebsiella pneumoniae assessed as inhibition of bacterial growth incubated for 18 hrs by two fold broth microdilution assay
[7] = tested on: Enterococcus faecalis; experiment: Antibacterial activity against Enterococcus faecalis assessed as inhibition of bacterial growth incubated for 18 hrs by two fold broth microdilution assay
[8] = tested on: Staphylococcus aureus; experiment: Antibacterial activity against methicilin-resistant Staphylococcus aureus N315 assessed as inhibition of bacterial growth incubated for 18 hrs by two fold broth microdilution assay
[9] = tested on: Staphylococcus aureus; experiment: Antibacterial activity against Staphylococcus aureus ATCC 25923 assessed as inhibition of bacterial growth incubated for 18 hrs by two fold broth microdilution assay
[10] = tested on: Escherichia coli; experiment: Antibacterial activity against Escherichia coli ATCC 25922 assessed as inhibition of bacterial growth incubated for 18 hrs by two fold broth microdilution assay
[11] = tested on: Pseudomonas aeruginosa; experiment: Antibacterial activity against Pseudomonas aeruginosa assessed as inhibition of bacterial growth incubated for 18 hrs by two fold broth microdilution assay

Compound	MIC [1]	MIC [2]	MIC [3]	MIC [4]	MIC [5]	MIC [6]	MIC [7]	MIC [8]	MIC [9]	MIC [10]	MIC [11]
CC(C)=CCn1cc(/C=C(\C#N)S(=O)(=O)c2ccc(N)cc2)c2ccccc21	64 µg/mL (≈ 163 µM)	8 µg/mL (≈ 20.4 µM)	0.5 µg/mL (≈ 1.28 µM)	128 µg/mL (≈ 327 µM)	8 µg/mL (≈ 20.4 µM)	8 µg/mL (≈ 20.4 µM)	128 µg/mL (≈ 327 µM)	32 µg/mL (≈ 81.7 µM)	16 µg/mL (≈ 40.9 µM)	8 µg/mL (≈ 20.4 µM)	2 µg/mL (≈ 5.11 µM)
Cc1cccc2c(/C=C(\C#N)S(=O)(=O)c3ccc(N)cc3)c[nH]c12	256 µg/mL (≈ 759 µM)	64 µg/mL (≈ 190 µM)	4 µg/mL (≈ 11.9 µM)	32 µg/mL (≈ 94.8 µM)	64 µg/mL (≈ 190 µM)	4 µg/mL (≈ 11.9 µM)	256 µg/mL (≈ 759 µM)	128 µg/mL (≈ 379 µM)	128 µg/mL (≈ 379 µM)	4 µg/mL (≈ 11.9 µM)	64 µg/mL (≈ 190 µM)
N#C/C(=C\c1c[nH]c2ccccc12)S(=O)(=O)c1ccc(N)cc1	32 µg/mL (≈ 99 µM)	1 µg/mL (≈ 3.09 µM)	8 µg/mL (≈ 24.7 µM)	32 µg/mL (≈ 99 µM)	2 µg/mL (≈ 6.18 µM)	1 µg/mL (≈ 3.09 µM)	32 µg/mL (≈ 99 µM)	64 µg/mL (≈ 198 µM)	128 µg/mL (≈ 396 µM)	4 µg/mL (≈ 12.4 µM)	4 µg/mL (≈ 12.4 µM)
N#C/C(=C\c1cn(Cc2cccc(F)c2)c2ccccc12)S(=O)(=O)c1ccc(N)cc1	128 µg/mL (≈ 297 µM)	64 µg/mL (≈ 148 µM)	8 µg/mL (≈ 18.5 µM)	64 µg/mL (≈ 148 µM)	256 µg/mL (≈ 593 µM)	4 µg/mL (≈ 9.27 µM)	128 µg/mL (≈ 297 µM)	256 µg/mL (≈ 593 µM)	64 µg/mL (≈ 148 µM)	64 µg/mL (≈ 148 µM)	64 µg/mL (≈ 148 µM)
CC(=O)Nc1ccc(S(=O)(=O)/C(C#N)=C/c2cn(Cc3ccccc3Cl)c3ccccc23)cc1	2 µg/mL (≈ 4.08 µM)	4 µg/mL (≈ 8.16 µM)	8 µg/mL (≈ 16.3 µM)	8 µg/mL (≈ 16.3 µM)	2 µg/mL (≈ 4.08 µM)	2 µg/mL (≈ 4.08 µM)	4 µg/mL (≈ 8.16 µM)	16 µg/mL (≈ 32.7 µM)	4 µg/mL (≈ 8.16 µM)	1 µg/mL (≈ 2.04 µM)	2 µg/mL (≈ 4.08 µM)
CC(=O)Nc1ccc(S(=O)(=O)/C(C#N)=C/c2c[nH]c3ccccc23)cc1	256 µg/mL (≈ 701 µM)	1 µg/mL (≈ 2.74 µM)	0.5 µg/mL (≈ 1.37 µM)	8 µg/mL (≈ 21.9 µM)	64 µg/mL (≈ 175 µM)	16 µg/mL (≈ 43.8 µM)	2 µg/mL (≈ 5.47 µM)	8 µg/mL (≈ 21.9 µM)	8 µg/mL (≈ 21.9 µM)	4 µg/mL (≈ 10.9 µM)	32 µg/mL (≈ 87.6 µM)
CCCCCn1cc(/C=C(\C#N)S(=O)(=O)c2ccc(NC(C)=O)cc2)c2ccccc21	128 µg/mL (≈ 294 µM)	64 µg/mL (≈ 147 µM)	64 µg/mL (≈ 147 µM)	16 µg/mL (≈ 36.7 µM)	64 µg/mL (≈ 147 µM)	8 µg/mL (≈ 18.4 µM)	256 µg/mL (≈ 588 µM)	256 µg/mL (≈ 588 µM)	8 µg/mL (≈ 18.4 µM)	16 µg/mL (≈ 36.7 µM)	64 µg/mL (≈ 147 µM)
CCCCCCCCn1cc(/C=C(\C#N)S(=O)(=O)c2ccc(NC(C)=O)cc2)c2ccccc21	8 µg/mL (≈ 16.7 µM)	16 µg/mL (≈ 33.5 µM)	8 µg/mL (≈ 16.7 µM)	16 µg/mL (≈ 33.5 µM)	256 µg/mL (≈ 536 µM)	4 µg/mL (≈ 8.37 µM)	16 µg/mL (≈ 33.5 µM)	256 µg/mL (≈ 536 µM)	4 µg/mL (≈ 8.37 µM)	32 µg/mL (≈ 67 µM)	64 µg/mL (≈ 134 µM)
N#C/C(=C\c1cn(Cc2ccc(F)cc2F)c2ccccc12)S(=O)(=O)c1ccc(N)cc1	32 µg/mL (≈ 71.2 µM)	64 µg/mL (≈ 142 µM)	16 µg/mL (≈ 35.6 µM)	8 µg/mL (≈ 17.8 µM)	256 µg/mL (≈ 570 µM)	4 µg/mL (≈ 8.9 µM)	256 µg/mL (≈ 570 µM)	256 µg/mL (≈ 570 µM)	64 µg/mL (≈ 142 µM)	64 µg/mL (≈ 142 µM)	64 µg/mL (≈ 142 µM)
CCOC(=O)Cn1cc(/C=C(\C#N)S(=O)(=O)c2ccc(NC(C)=O)cc2)c2ccccc21	128 µg/mL (≈ 283 µM)	128 µg/mL (≈ 283 µM)	128 µg/mL (≈ 283 µM)	16 µg/mL (≈ 35.4 µM)	32 µg/mL (≈ 70.9 µM)	64 µg/mL (≈ 142 µM)	128 µg/mL (≈ 283 µM)	256 µg/mL (≈ 567 µM)	64 µg/mL (≈ 142 µM)	256 µg/mL (≈ 567 µM)	8 µg/mL (≈ 17.7 µM)
CC(=O)Nc1ccc(S(=O)(=O)/C(C#N)=C/c2cn(Cc3ccc(Cl)cc3Cl)c3ccccc23)cc1	16 µg/mL (≈ 30.5 µM)	32 µg/mL (≈ 61 µM)	8 µg/mL (≈ 15.3 µM)	8 µg/mL (≈ 15.3 µM)	256 µg/mL (≈ 488 µM)	4 µg/mL (≈ 7.63 µM)	256 µg/mL (≈ 488 µM)	64 µg/mL (≈ 122 µM)	64 µg/mL (≈ 122 µM)	64 µg/mL (≈ 122 µM)	64 µg/mL (≈ 122 µM)
CC(=O)Nc1ccc(S(=O)(=O)/C(C#N)=C/c2cn(Cc3cccc(F)c3)c3ccccc23)cc1	64 µg/mL (≈ 135 µM)	16 µg/mL (≈ 33.8 µM)	16 µg/mL (≈ 33.8 µM)	16 µg/mL (≈ 33.8 µM)	128 µg/mL (≈ 270 µM)	256 µg/mL (≈ 541 µM)	32 µg/mL (≈ 67.6 µM)	256 µg/mL (≈ 541 µM)	16 µg/mL (≈ 33.8 µM)	64 µg/mL (≈ 135 µM)	64 µg/mL (≈ 135 µM)
C=CCn1cc(/C=C(\C#N)S(=O)(=O)c2ccc(N)cc2)c2ccccc21	64 µg/mL (≈ 176 µM)	8 µg/mL (≈ 22 µM)	64 µg/mL (≈ 176 µM)	4 µg/mL (≈ 11 µM)	8 µg/mL (≈ 22 µM)	8 µg/mL (≈ 22 µM)	8 µg/mL (≈ 22 µM)	32 µg/mL (≈ 88 µM)	4 µg/mL (≈ 11 µM)	16 µg/mL (≈ 44 µM)	64 µg/mL (≈ 176 µM)
